PubChem BioAssay AID1648 (Sanford-Burnham Center for Chemical Genomics, 2009)
Activity calls are given as the source filed them. The rule behind the calls is not given here.

molecular target: Serine/threonine-protein kinase mTOR (Homo sapiens) (UniProt P42345); assay: mTOR FRB domain ligand binding – biophysical, NMR (AID 1648); conditions: NMR binding to FRB domain, chemical shift
Sequence (P42345 2015-2114): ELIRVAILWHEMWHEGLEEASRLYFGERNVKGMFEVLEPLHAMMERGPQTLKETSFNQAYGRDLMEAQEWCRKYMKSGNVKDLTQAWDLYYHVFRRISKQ

Structure (SMILES) | Kd
O=C1CNC(=O)N1Cc1ccc(F)cc1 | > 4 mM (inactive)
CCCn1cnn2c(=O)cc(C)nc12 | > 4 mM (inactive)
C[C@H](CCC(=O)O)[C@H]1CCC2C3C(CC[C@@]21C)[C@@]1(C)CC[C@@H](O)C[C@H]1C[C@H]3O (stereo partly specified) | > 4 mM (inactive)
CN1C(=O)CC[C@H]1c1cccnc1 | > 4 mM (inactive)
Cn1nnc2cc(C(=O)O)ccc21 | > 4 mM (inactive)
O=c1cnnc(SCCc2ccccc2)[nH]1 | > 4 mM (inactive)
CC(=O)O[C@H]1CCC2(C)C3=C(CCC2C1(C)C)[C@@]1(C)CC[C@@H](C(C)CCC=C(C)C)[C@]1(C)CC3 (stereo partly specified) | > 4 mM (inactive)
S=C(Nc1ccccc1)Nc1nncs1 | > 4 mM (inactive)
CC(=O)Oc1c(-c2ccccc2)oc2c(CC=C(C)C)c3c(c(OC(C)=O)c2c1=O)C=CC(C)(C)O3 | > 4 mM (inactive)
CC(=O)OC(C)(C)[C@@H]1Cc2cc3ccc(=O)oc3cc2O1 | > 4 mM (inactive)
O=C(O)Cn1nc(-c2ccccc2)c2ccccc2c1=O | > 4 mM (inactive)
c1ccc(-n2nnnc2-n2cnc3ccccc32)cc1 | > 4 mM (inactive)
CCOC(=O)N1CCCC1c1cccnc1 (stereo unspecified) | > 4 mM (inactive)
C=CCc1cc(C(=O)N2CCCCC2)ccc1O | > 4 mM (inactive)
CC(=O)Nc1cccs1 | > 4 mM (inactive)
Cc1n[nH]c(=O)c2ncn(C)c12 | > 4 mM (inactive)
O=c1ccc2ccc(O)cc2o1 | > 4 mM (inactive)
CCOC(=O)c1csc(C)n1 | > 4 mM (inactive)
O=C(NCc1ccccn1)c1ccc(Cl)cc1Cl | > 4 mM (inactive)
Nc1ncnc2nc[nH]c12 | > 4 mM (inactive)
COc1cccc(Oc2ccc(N)cn2)c1 | > 4 mM (inactive)
CC1=CC(=O)C2C(C)(C)CCC[C@]2(C)[C@@]1(O)CCc1ccoc1 (stereo partly specified) | > 4 mM (inactive)
COc1cc2c(cc1OC)-c1cc3ccc(OC)c(OC)c3c[n+]1CC2 | > 4 mM (inactive)
CC(=O)O[C@@H]1CC[C@@]2(C)C(CC[C@]3(C)C2CC=C2C4CC(C)(C)CC[C@]4(C(=O)O)CC[C@]23C)C1(C)C (stereo partly specified) | > 4 mM (inactive)

Structure (SMILES) | Kd
[O-][n+]1cc(O)c(CN2CCOCC2)c2ccccc21 | > 4 mM (inactive)
NS(=O)(=O)c1ccc(N=Cc2ccc[nH]2)cc1 | > 4 mM (inactive)
O=C(NCc1cccc(Cl)c1)c1cccnc1 | > 4 mM (inactive)
CN1CC(=O)Nc2ccc([N+](=O)[O-])cc2C1=O | > 4 mM (inactive)
C(=N\c1nccs1)/c1cccnc1 | > 4 mM (inactive)
CC(=O)N(C)Cc1nc2ccccc2n1C | > 4 mM (inactive)
CNC(=O)C1CCCN(S(C)(=O)=O)C1 (stereo unspecified) | > 4 mM (inactive)
CC(=O)Nc1ccc(S(=O)(=O)NC(N)=O)cc1 | > 4 mM (inactive)
CCSc1nc(N)c(NC(=O)c2ccco2)c(=O)[nH]1 | > 4 mM (inactive)
COC(=O)C1=C(C)N(c2cccc(C(C)=O)c2)C(=O)C1 | > 4 mM (inactive)
O=C(c1cccc(-n2cnnn2)c1)N1CCOCC1 | > 4 mM (inactive)
CN(C)C(=S)Nc1ccccc1N1CCOCC1 | > 4 mM (inactive)
COc1ccc2nc(SCC(N)=O)[nH]c2c1 | > 4 mM (inactive)
NCc1csc2ccccc12 | > 4 mM (inactive)
COc1cc(O)ccc1C(C)=O | > 4 mM (inactive)
Cc1csc2nc3ccccc3c(=O)n12 | > 4 mM (inactive)
Cc1noc(C)c1C(=O)N1CCN(c2ncccn2)CC1 | > 4 mM (inactive)
NC(=O)c1ccc(NC(=O)c2ccco2)cc1 | > 4 mM (inactive)
Cc1ccc(C(=O)Nc2nnc(-c3ccncc3)s2)o1 | > 4 mM (inactive)
COc1cc2nc[nH]c(=O)c2cc1OC | > 4 mM (inactive)
COc1cc(C)c(S(=O)(=O)N2CCN(C)CC2)cc1C | > 4 mM (inactive)
Cc1nn(C)c(Cl)c1S(=O)(=O)N1CCOCC1 | > 4 mM (inactive)
CC(=O)NC(O)C(=O)c1ccccc1 (stereo unspecified) | > 4 mM (inactive)
Cc1nnc(N2CCN(Cc3ccccc3)CC2)[nH]c1=O | > 4 mM (inactive)

Structure (SMILES) | Kd
Cn1cccc1C=C1C(=O)NC(=S)NC1=O | > 4 mM (inactive)
Cc1scc(C(=O)Nc2ccon2)c1-c1ccccc1 | > 4 mM (inactive)
O=S1(=O)CCC(NC(=S)Nc2ccccn2)C1 (stereo unspecified) | > 4 mM (inactive)
CC(C)c1c(O)ccc2c1CCC1[C@@](C)(CO)CCC[C@]21C (stereo partly specified) | > 4 mM (inactive)
COc1ccc2c(c1)O[C@H]1c3ccc(OC)cc3OC[C@@H]21 | > 4 mM (inactive)
CC(=O)OC1CCC2(O)CC1(C)CCC1C2CC1(C)C (stereo unspecified) | > 4 mM (inactive)
COc1ccc2c(C)cc(=O)oc2c1 | > 4 mM (inactive)
O=C1c2ccccc2-c2ncnc3cccc1c23 | > 4 mM (inactive)
C=CCn1c(N)c(C(=O)N2CCOCC2)sc1=S | > 4 mM (inactive)
CCOC(=O)CC1NCCNC1=O (stereo unspecified) | > 4 mM (inactive)
Cc1cc(C)n(-c2ccc(N)cc2)n1 | > 4 mM (inactive)
CC[C@@]1(O)C(=O)OCc2c1cc1n(c2=O)Cc2cc3ccccc3nc2-1 | > 4 mM (inactive)
COC(=O)CC1=Nc2ccccc2NC(=O)C1 | > 4 mM (inactive)
COCC(=O)Nc1nc2ccc(C)cc2s1 | > 4 mM (inactive)
N#Cc1cnn(-c2ccc(Cl)cc2)c1N | > 4 mM (inactive)
Cn1nc(C(=O)Nc2cccnc2)cc1Cl | > 4 mM (inactive)
Nc1cccc(NC(=O)c2cccs2)c1 | > 4 mM (inactive)
c1ccc(-c2nnc3sc(-c4ccncc4)nn23)cc1 | > 4 mM (inactive)
COc1ccc(CC(=O)c2ccc(O)cc2O)cc1 | > 4 mM (inactive)
O=C1CS/C(=N/S(=O)(=O)c2ccccc2)N1 | > 4 mM (inactive)
CC1=CC(=O)CC(C)(C)C1(O)/C=C/C(C)=C\C(=O)O (stereo unspecified) | > 4 mM (inactive)
O=C1CSC(c2ccccc2)N1 (stereo unspecified) | > 4 mM (inactive)
CCOC(=O)c1ccc(F)cc1F | > 4 mM (inactive)
COc1c2occc2c(OC)c2c(=O)cc(C)oc12 | > 4 mM (inactive)

Structure (SMILES) | Kd
CC[C@H](/C=C/C(C)C1CCC2C3CCC4=CC(=O)CC[C@]4(C)C3CC[C@]12C)C(C)C (stereo partly specified) | > 4 mM (inactive)
CC(=O)OCC(=O)[C@@]1(O)CCC2C3CC[C@@H]4C[C@H](O)CC[C@]4(C)C3C(=O)C[C@@]21C (stereo partly specified) | > 4 mM (inactive)
COC(=O)c1c(OC)cc2c(c1C)Oc1c(Cl)c(O)c(Cl)c(C)c1C(=O)O2 | > 4 mM (inactive)
NC(=O)CCn1c(=O)oc2ccccc21 | > 4 mM (inactive)
Oc1cccc2[nH]ccc12 | > 4 mM (inactive)
c1cncc(C2CCCCN2)c1 (stereo unspecified) | > 4 mM (inactive)
COC(=O)c1ccc2ncccc2c1 | > 4 mM (inactive)
Cc1ccc(S(C)(=O)=O)s1 | > 4 mM (inactive)
COCC(=O)/C=C1\Sc2ccccc2N1C | > 4 mM (inactive)
Cc1[nH]n(-c2ccccc2)c(=O)c1[N+](=O)[O-] | > 4 mM (inactive)
COc1ccc(-c2cc(=O)c3ccccc3o2)cc1OC | > 4 mM (inactive)
NS(=O)(=O)c1ccc(N=Cc2cccs2)cc1 | > 4 mM (inactive)
O=C(NCc1ccccc1Br)c1ccco1 | > 4 mM (inactive)
O=C(O)CN1C(=O)c2ccc(C(=O)O)cc2C1=O | > 4 mM (inactive)
O=C(Nc1c[nH]c(=O)[nH]c1=O)c1ccccc1F | > 4 mM (inactive)
CC(C)n1nnc2cc(C(=O)O)ccc21 | > 4 mM (inactive)
CC(C)(C)c1cc(N)n[nH]1 | > 4 mM (inactive)
CC1(C)CC[C@]2(C(=O)O)CC[C@]3(C)C(=CCC4[C@@]5(C)CC[C@@H](O)C(C)(C)C5CC[C@]43C)C2C1 (stereo partly specified) | > 4 mM (inactive)
O=C(Nc1ccccc1)c1cccc(N2C(=O)CCC2=O)c1 | > 4 mM (inactive)
COC(=O)[C@@H]1OC(=O)C2OC23[C@@]1(C)CCC1[C@]2(C)C(C[C@H](O)[C@]13C)C(C)(C)[C@H](OC(C)=O)C[C@@H]2OC(C)=O (stereo partly specified) | > 4 mM (inactive)
COc1ccc(Cl)cc1NC(=O)C(N)=O | > 4 mM (inactive)
Nc1ncc2[nH]cnc2n1 | > 4 mM (inactive)
CC1CCC(N2CCN(c3ncccn3)CC2)CC1 (stereo unspecified) | > 4 mM (inactive)
CCOC(=O)C1CCN(c2ccc(C#N)cc2)CC1 | > 4 mM (inactive)

Structure (SMILES) | Kd
CC(=O)Nc1ccc(NC(=O)N2CCOCC2)cc1 | > 4 mM (inactive)
NC(=O)CCN1C(=O)c2ccccc2C1=O | > 4 mM (inactive)
O=C1c2ccccc2C(=O)N1CCc1ccccn1 | > 4 mM (inactive)
O=S(=O)(Nc1ccc2c(c1)OCCO2)c1cccs1 | > 4 mM (inactive)
O=C(O)c1cccnc1-c1nc2ccccc2s1 | > 4 mM (inactive)
CC(=O)c1cccc(NC(=O)C=C(C)C)c1 | > 4 mM (inactive)
Nc1ccc(Oc2ccccc2)nc1 | > 4 mM (inactive)
CN1CN(Cc2ccccc2)CN/C1=N/[N+](=O)[O-] | > 4 mM (inactive)
O=C(Cc1ccccc1)Nc1c[nH]c(=O)[nH]c1=O | > 4 mM (inactive)
COCC(=O)Nc1cc2c3c(c1)CCN3C(=O)CC2 | > 4 mM (inactive)
O=C(c1nc2ccccc2s1)N1CCSCC1 | > 4 mM (inactive)
CN1CC(=O)N=C1N | > 4 mM (inactive)
CC1=C2C(O)C(=O)OC3CC4C(C)(C)C(=O)C=C[C@]4(C)C(CC1)[C@]23C (stereo partly specified) | > 4 mM (inactive)
OCc1ccc(OC(F)(F)F)cc1 | > 4 mM (inactive)
COC(=O)c1cccs1 | > 4 mM (inactive)
CC1(C)C=CC(=O)[C@@]2(C)C1CC(=O)[C@]1(C)C2CC[C@@]2(C)[C@H](c3ccoc3)OC(=O)C3OC321 (stereo partly specified) | > 4 mM (inactive)
C=C1CSc2nc(=O)c3c(C)c(C)sc3n21 | > 4 mM (inactive)
C[C@@H]1CC[C@]2(C(=O)O)CC[C@]3(C)C(=CCC4[C@@]5(C)CC[C@H](O)C(C)(C)C5CC[C@]43C)C2[C@H]1C (stereo partly specified) | > 4 mM (inactive)
C[C@H]1C[C@@H](O)[C@]2(O)[C@@]13CC(=O)OC[C@@]2(C)[C@](C)(O)C(=O)C3 | > 4 mM (inactive)
O=C(O)CCCCC1SCC2NC(=O)NC21 (stereo unspecified) | > 4 mM (inactive)
